Laboratory results as given in patent US12528776B2, “Composition and method for treating dermatological disorders using retinamides” (UNIVERSITY OF MARYLAND, Baltimore, priority 2019, dated 2026).
Read-outs that look alike come from different tables or passages of the source.

Key:
retinoic acid metabolism = conditions: racemate versus enantiomers; cited from earlier work
NHAK cells = assay: Anti-proliferative effect of ATRA or 13-CRA alone or combined with low-dose VNLG-152; assay type: cell-based, human; conditions: for GI50: Homo sapiens, alone, 0.1 to 10,000 nM, continuous incubation, read-out: GI50, ATRA or 13-CRA alone (Example 2); for fold enhancement of anti-proliferative activity (GI50) by VNLG-152: in combination with 40 nM VNLG-152, NHAK
[1] = tested on: keratin 10 (K10), keratin 19 (K19) and filaggrin expression in RHE cultures; assay: RHE immunostaining for K10, K19 and filaggrin; conditions: 0.02% topical, 3 days, immunolabelling
[2] = tested on: immortalized human sebocytes SZ95; conditions: after 9 days; cited from earlier work
[3] = tested on: reconstructed human epidermis (RHE); assay: Reconstructed human epidermis (RHE) histology, H and E; assay type: cell-based; conditions: 0.02% topical, 3 days at 37° C.
Procedure: RHE tissues were treated with indicated concentration and incubated for 3 days at 37° C. Following treatment tissues were fixed, sectioned and stained with H and E. Representative images from three independent experiments are shown in FIG. 5A to 5E. RHE tissues were untreated (FIG. 5A) or treated with vehicle (ethanol) (FIG. SB), ATRA 0.02% solution (FIG. 5C), 13-CRA 0.02% (FIG. 5D); and VNLG-152 0.02% (FIG. 5E). […] In the figures, “SC” refers to “stratum corneum”, “SG” to “stratum granulosum”, “SS” to “stratum spinosum”, and “SB” to “stratum basale”.

[4] = tested on: adult normal human keratinocytes (NHAKs); assay: Growth inhibition (MTT) of adult normal human keratinocytes; assay type: cell-based; conditions: for GI50: Homo sapiens, Keratinocyte; for fold more potent inhibition of growth than 13-CRA (isotretinoin), NHAKs: ratio of GI50 values versus 13-CRA
RARα,β,γ receptors = conditions: significantly less potent than ATRA; cited from earlier work
[5] = tested on: SEB-1 human primary sebocytes; assay: Growth inhibition (MTT) of SEB-1 sebocytes; assay type: cell-based; conditions: for GI50: Homo sapiens, 168 h, MTT assay, 7 days treatment; for fold more potent inhibition of growth than 13-CRA (isotretinoin), SEB-1: ratio of GI50 values versus 13-CRA
Procedure: Human adult keratinocytes (pooled) (ZenBio Inc., Research Triangle Park, NC) were cultured in human adult keratinocyte growth medium (KM-2). The SEB-1 human primary sebocytes (ZenBio Inc., Research Triangle Park, NC) were cultured and maintained in sebocyte growth medium. Cells were plated 1 day prior to treatment. Retinamides (VNLG-152 and VNHM-1-73) and other clinically relevant retinoids (13-CRA, 9-CRA, and ATRA) were treated at indicated concentration and time periods and incubated at 37° C. in 5% CO2.
Assays for normal human adult keratinocytes (NHAKs) and human SEB-1 sebocytes growth inhibition were performed as described previously^20. Adult human keratinocytes or sebocytes were treated with VNLG-152,VNHM-1-73 and other retinoids for 7 days. MTT assay was performed at the end of the experiment. Results represent the mean±standard deviation of three independent experiments.

NHAK = assay: TUNEL (in situ cell death detection) apoptosis assay; assay type: cell-based, human; conditions: 72 hours
Procedure: (§1) For acridine orange/ethidium bromide (AO/EB) dual staining assay, keratinocytes were treated with indicated concentrations of the compounds for 24.48 and 72 h. At the end of incubation period, 100 μl of 1:1 ratio of acridine orange (0.1%) and ethidium bromide (0.2%) in PBS were added to the cells and incubated at 37° C. and 5% CO2 for 30 min. Cells were then immediately analyzed using Nikon TE2000 fluorescence microscope. Assessment of the apoptotic potential by in situ Cell Death Detection assay was done as per protocol of the manufacturer (Roche Diagnostics).
The apoptosis inducing potential of VNLG-152 was evaluated by TUNEL assay in NHAK. The individual cell lines as indicated were seeded in 8 well chamber slides, and treated with indicated concentrations and times of 13-CRA, ATRA and VNLG-/152. After 72 hours, the plates were analyzed for TUNEL positive staining. Statistical analysis was performed with ANOVA two factor with replication (*P<0.05, **P<0.01, ***P<0.001).

[6] = tested on: triple negative breast cancer (TNBC) tumor; conditions: in vivo; cited from earlier work
keratinocytes = assay: Acridine orange/ethidium bromide (AO/EB) dual staining apoptosis assay; assay type: cell-based, human; conditions: VNLG-152 0.2 μM, 48 and 72 h; versus 13-CRA and ATRA 5 and 10 μM
Procedure: as §1
In FIGS. 3A and 3B, the plates were analyzed for early apoptotic and viable cells using acridine orange/ethidium bromide staining. […] In FIG. 3C, the bars are means of three replicate determinations plus standard deviations. Statistical analysis was performed with ANOVA two factor with replication (*P<0.05, **P<0.01, ***P<0.001).

[7] = tested on: mTORC1/4E-BP1/p70SK6 signaling; conditions: cited from earlier work
[8] = tested on: castration-resistant prostate cancer xenograft; conditions: in vivo; cited from earlier work
[9] = read-out: GI50 values in inhibiting NHAKs and sebocytes (range over both cell types)
[10] = 168 h, MTT assay, 7 days treatment, read-out: GI50, growth and proliferation of adult keratinocytes (NHAKs)

## COC(=O)/C=C(C)/C=C/C=C(C)/C=C/C1=C(C)C(n2ccnc2)CCC1(C)C (racemic) [(±)-VN-12-1]
Retinoic acid metabolism
  fold more potent than either pure (4S)-(+)- or (4R)-(−)- enantiomer: up to 28 fold

## CC1=C(/C=C/C(C)=C/C=C/C(C)=C/C(=O)O)C(C)(C)CCC1 [ATRA, all-trans-retinoic acid]
NHAK cells
  GI50: 63100 nM
  fold enhancement of anti-proliferative activity (GI50) by VNLG-152: 200 fold
[1]
  expression of K10 and filaggrin in sb and sg layers of RHE: reduced the expression of these proteins
[2]
  reduction of proliferation of SZ95 sebocytes: approximately 50%
[3]
  RHE morphology after topical treatment: loss of keratohyalin granules in the upper granular layer

## CC1=C(/C=C/C(C)=C\C=C\C(C)=C\C(=O)O)C(C)(C)CCC1 [Compound 9-CRA, 9-cis-retinoic acid]
[2]
  reduction of proliferation of SZ95 sebocytes: approximately 50%

## CC1=C(/C=C/C(C)=C/C=C/C(C)=C\C(=O)O)C(C)(C)CCC1 [Compound 13-CRA, 13-cis-retinoic acid]
NHAK cells
  GI50: 75800 nM
  fold enhancement of anti-proliferative activity (GI50) by VNLG-152: 123 fold
[2]
  reduction of proliferation of SZ95 sebocytes: approximately 50%
[3]
  RHE morphology after topical treatment: loss of keratohyalin granules in the upper granular layer
[4]; [9]
  GI50: 26000 to 96400 nM

## CC1=C(/C=C/C(C)=C/C=C/C(C)=C/C(=O)O)C(C)(C)CCC1n1ccnc1 (centres unmarked) [VN/14-1]
RARα,β,γ receptors
  RAR binding and activation: binds and activates the RARα,β,γ receptors

## CC1=C(/C=C/C(C)=C/C=C/C(C)=C\C(=O)NCc2ccc(O)cc2)C(C)(C)CCC1n1ccnc1 (centres unmarked) [VNHM-1-73, (2Z,4E,6E,8E)-9-(3-(1H-imidazol-1-yl)-2,6,6-trimethylcyclohex-1-en-1-yl)-N-(4-hydroxybenzyl)-3,7-dimethylnona-2,4,6,8-tetraenamide]
[5]
  GI50: 467 nM
  fold more potent inhibition of growth than 13-CRA (isotretinoin), SEB-1: 85 fold
[4]; [10]
  GI50: 1280 nM
[4]
  fold more potent inhibition of growth than 13-CRA (isotretinoin), NHAKs: 59.3 fold

## CC1=C(/C=C/C(C)=C/C=C/C(C)=C/C(=O)Nc2ccc(F)cc2)C(C)(C)CCC1n1ccnc1 (centres unmarked) [VNLG-152]
NHAK; 0.2 μM
  induction of apoptosis versus control (TUNEL): ~50%
NHAK; 1 μM
  induction of apoptosis (TUNEL): ~84%
[6]
  effect on TNBC tumor growth and metastasis: potently inhibits triple negative breast cancer (TNBC) tumor growth and metastasis
keratinocytes
  pro-apoptotic effect, AO/EB dual staining: strong pro-apoptotic effects
NHAK cells; 40 nM VNLG-152 alone, NHAK
  anti-proliferative effect at low dose: < 10%
[1]
  expression of K10 and filaggrin in sb and sg layers of RHE: reduced the expression of these proteins
[7]
  inhibition of mTORC1 signaling: potently inhibits mTORC1/4E-BP1/p70SK6 signaling
[8]
  effect on castration-resistant prostate cancer xenograft growth: suppress EMT and castration-resistant prostate cancer xenograft growth
[5]
  GI50: 66 nM
  fold more potent inhibition of growth than 13-CRA (isotretinoin), SEB-1: 603 fold
[5]; versus 13-CRA
  times more potent than 13-CRA in reducing the growth of SEB-1 sebocytes: about 35 times
[3]
  RHE morphology after topical treatment: loss of keratohyalin granules in the upper granular layer
[4]; [10]
  GI50: 239 nM
[4]; [9]
  GI50: 66 to 239 nM
[4]
  fold more potent inhibition of growth than 13-CRA (isotretinoin), NHAKs: 317.4 fold
